Data from patent EP4610269A1, “UROKINASE PLASMINOGEN ACTIVATOR SURFACE RECEPTOR (UPAR) LIGANDS FOR DIAGNOSTIC OR THERAPEUTIC USE” (3B Pharmaceuticals GmbH, priority 2024, dated 2025).
pIC50: −log10 of the molar value. Like-named read-outs stand apart in the source and are kept apart here. Where a SMILES comes first, the peptide text is derived from it. Bridges are numbered along the chain shown (N, C = ends). [ ]: non-standard residue; d: D form. The star is where a group is joined. DOTA = O=C(O)CN1CCN(CC(=O)O)CCN(CC(=O)*)CCN(CC(=O)O)CC1; Phe(4-CONH2) = NC(=O)c1ccc(C[C@H](N)C(=O)O)cc1; Pro(cis-4-F) = O=C(O)[C@@H]1C[C@H](F)CN1; Hyp = O=C(O)[C@@H]1C[C@@H](O)CN1; Pentanoyl(4-Me) = CC(C)CCC(=O)*; Cit = NC(=O)NCCC[C@H](N)C(=O)O; Butoxycarbonyl = CCCCOC(=O)*; Orn = NCCC[C@H](N)C(=O)O; Nva = CCC[C@H](N)C(=O)O

What was measured:
[1] = target: T1, uPAR-expressing HEC-265 human endometrial adenocarcinoma cells (Homo sapiens, UniProt Q03405); assay: Competitive FACS binding assay; conditions: pIC50 category of FACS binding
T1 construct: Cell surface uPAR-expressing HEC-265 human endometrial adenocarcinoma cells; host or cells: HEC-265
Procedure, shortened: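 HEC-265 cells incubated 1 h at 4 °C with 10 nM biotinylated uPAR peptide tracer plus increasing test compound, then stained with APC-streptavidin on ice. Median APC fluorescence by flow cytometry; 4PL fit gives pIC50.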

human uPAR (uPAR-Fc) = target: T2, human uPAR (uPAR-Fc) (Homo sapiens, UniProt Q03405); assay: Surface plasmon resonance (SPR) assay, single cycle kinetics; assay type: binding; conditions: pKD category for uPAR SPR activity assay, uPAR-Fc on Protein A-Chip, 25°C, read-out: pKD CAT (converted)
T2 construct: comprising amino acids Leu23-Arg303 according to UniProt entry Q03405.1; purchased R&D Systems 10378-UK-100
Procedure, shortened: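 uPAR-Fc (Leu23-Arg303 extracellular domains, human IgG1 Fc) captured on Protein A chip to ~2000 RU; single-cycle kinetics at 25°C in HEPES running buffer pH 7.4 with 0.1% DMSO. KD from double-referenced sensorgrams fitted to 1:1 Langmuir model, reported as pKD.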

T1 sequence (Q03405 23-335): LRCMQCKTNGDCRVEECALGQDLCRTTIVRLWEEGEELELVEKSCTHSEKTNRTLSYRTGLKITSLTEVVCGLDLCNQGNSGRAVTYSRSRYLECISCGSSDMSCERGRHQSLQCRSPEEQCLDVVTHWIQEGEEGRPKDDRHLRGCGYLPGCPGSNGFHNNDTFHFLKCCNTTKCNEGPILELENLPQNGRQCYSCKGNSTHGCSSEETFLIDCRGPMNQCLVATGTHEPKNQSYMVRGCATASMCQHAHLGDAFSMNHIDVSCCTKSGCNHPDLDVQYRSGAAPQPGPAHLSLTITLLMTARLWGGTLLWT
T2 sequence (Q03405 23-303): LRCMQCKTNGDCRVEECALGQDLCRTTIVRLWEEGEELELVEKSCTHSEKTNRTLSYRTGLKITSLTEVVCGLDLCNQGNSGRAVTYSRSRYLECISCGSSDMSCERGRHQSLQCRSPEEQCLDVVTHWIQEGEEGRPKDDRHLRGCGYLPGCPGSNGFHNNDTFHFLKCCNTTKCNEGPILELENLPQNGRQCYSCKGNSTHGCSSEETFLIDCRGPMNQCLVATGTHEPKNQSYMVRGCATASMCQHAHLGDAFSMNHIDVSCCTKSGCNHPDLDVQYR

Compound | pIC50 [1] | Kd (human uPAR (uPAR-Fc); single cycle kinetics) | Kd (human uPAR (uPAR-Fc))
CC[C@H](C)[C@@H]1NC(=O)[C@@H]2CCCN2C(=O)[C@@H]2CCCN2C(=O)[C@H](Cc2ccccc2)NC(=O)[C@H](Cc2ccc(O)cc2)NC(=O)[C@H](CCCCNC(=O)CN2CCN(CC(=O)O)CCN(CC(=O)O)CCN(CC(=O)O)CC2)NC(=O)[C@H](CCCNC(N)=O)NC(=O)[C@@H](NC(=O)CCC(C)C)CSSC[C@@H](C(N)=O)NC(=O)[C@H](CC(C)C)NC1=O [UPAR-382, iHex-[Cys-Cit-Lys(DOTA)-Tyr-Phe-Pro-Pro-Ile-Leu-Cys]-NHz] ({Pentanoyl(4-Me)}-C[Cit]K(DOTA)YFPPILC-NH2; disulfide 1-10) | ≥ 8.00 | < 1.58 nM | 
CC[C@H](C)[C@@H]1NC(=O)[C@@H]2C[C@@H](O)CN2C(=O)[C@@H]2CCCN2C(=O)[C@H](Cc2ccccc2)NC(=O)[C@H](Cc2ccc(O)cc2)NC(=O)[C@H](CCC(N)=O)NC(=O)[C@H](CCCNC(N)=O)NC(=O)[C@@H](NC(=O)CCC(C)C)CSSC[C@@H](C(N)=O)NC(=O)[C@H](CC(C)C)NC1=O [UPAR-174, iHex-[Cys-Cit-Gln-Tyr-Phe-Pro-Hyp-Ile-Leu-Cys]-NH2] ({Pentanoyl(4-Me)}-C[Cit]QYFP[Hyp]ILC-NH2; disulfide 1-10) | ≥ 8.00 |  | < 1.58 nM
CC[C@H](C)[C@@H]1NC(=O)[C@@H](C)NC(=O)[C@@H]2CCCN2C(=O)[C@H](Cc2ccccc2)NC(=O)[C@H](Cc2ccc(O)cc2)NC(=O)[C@H](CCC(N)=O)NC(=O)[C@H](CCCNC(N)=O)NC(=O)[C@@H](NC(=O)[C@H](CC(C)C)NC(=O)CN2CCN(CC(=O)O)CCN(CC(=O)O)CCN(CC(=O)O)CC2)CSSC[C@@H](C(N)=O)NC(=O)[C@H](CC(C)C)NC1=O [UPAR-441, DOTA-Leu-[Cys-Cit-Gln-Tyr-Phe-Pro-ala-Ile-Leu-Cys]-NH2] ({DOTA}-LC[Cit]QYFP[dA]ILC-NH2; disulfide 2-11) | 7.00 to 7.40 | < 1.58 nM | 
CCCCOC(=O)N[C@H]1CSSC[C@@H](C(N)=O)NC(=O)[C@H](CCC)NC(=O)[C@H]([C@@H](C)CC)NC(=O)[C@@H]2C[C@@H](O)CN2C(=O)[C@@H]2C[C@H](F)CN2C(=O)[C@H](Cc2ccccc2)NC(=O)[C@H](Cc2ccc(C(N)=O)cc2)NC(=O)[C@H](CCCNC(=O)CN2CCN(CC(=O)O)CCN(CC(=O)O)CCN(CC(=O)O)CC2)NC(=O)[C@H]([C@@H](C)O)NC1=O [UPAR-276, Butoc-[Cys-Thr-Orn(DOTA)-Pcnf-Phe-4Cfp-Hyp-Ile-Nva-Cys]-NHz] (Butoxycarbonyl-CT[Orn](DOTA)[Phe(4-CONH2)]F[Pro(cis-4-F)][Hyp]I[Nva]C-NH2; disulfide 1-10) | ≥ 8.00 |  | < 1.58 nM
